From US20090227600A1, “4-(PYRAZINE-2-YL) -PYRROLIDINE -2-CARBOXYLIC ACID COMPOUNDS AND DERIVATIVES THEREOF AS HEPATITIS C VIRUS INHIBITORS” (priority 2004, published 2009)

Target: T1, HCV RNA Polymerase, recombinant NS5B with C-terminal 21 amino acid deletion, genotype 1a strain H77 (Hepatitis C virus genotype 1a, UniProt P27958)
T1 construct: fused on or other part: C-terminal 6His-tag
Assay: In vitro HCV RNA-dependent RNA polymerase inhibition assay, genotype 1a C-terminally truncated (delta21) enzyme
Format: biochemical, HCV genotype 1a
Conditions: genotype 1a delta21 NS5B enzyme; read-out: IC50 in delta-21 1a enzyme inhibition assay
Excerpt: Incorporation of [^33P]-GMP into RNA was followed by absorption of the biotin labelled RNA polymer by streptavidin containing SPA beads. A synthetic template consisting of biotinylated 13mer-oligoG hybridised to polyrC was used as a homopolymer substrate.
a) Genotype 1a C-Terminally Truncated (delta21) Enzyme
HCV RNA Polymerase [Recombinant NS5B with C-terminal 21 amino acid deletion and C-terminal 6His-tag (Ferrari et al. J. Virol, 73(2), 1999, 1649. ‘Characterization of soluble hepatitis C virus RNA-dependent RNA polymerase expressed in Escherichia coli.’) expressed in E. coli and purified to homogeneity] was added to 25 nM final concentration. Polymerase of genotype 1a was from strain H77 (Yanagi, M., Purcell, R. H., Emerson, S. U. & Bukh, J. (1997), Proceedings of the National Academy of Sciences, USA 94, 8738-8743) containing a sequence change from valine to isoleucine at position 180.
Reaction Conditions were 25 nM enzyme, 1.5 μg/ml oligo-rG13/poly-rC and 0.2 μCi α-^33P-GTP in 0.5 μM GTP (20 Ci/mMol), 20 mM Tris pH 7.5, 23 mM NaCl, 3 mM DTT, 5 mM MgCl2, 1 mM MnCl2.
Enzyme was diluted to 500 nM concentration in 20 mM Tris-HCl, pH 7.5, 25 mM NaCl and 3 mM DTT.
4× concentrated assay buffer mix was prepared using 1M Tris-HCl, pH7.5 (1 mL), 5M NaCl (0.25 mL), 1M DTT (0.12 mL) and Water (8.63 mL), Total 10 mL.
2× concentrated first reagent was prepared using 4× concentrated assay buffer mix (5 μL), 40 u/μL RNasin (0.1 μL), 20 μg/mL polyrC/biotinylated-oligoG (1.6 μL), 500 nM enzyme (1 μL) and Water (2.3 μL), Total 10 μl/well.
2× concentrated second reagent was prepared using 1M MgCl2 (0.1 μL), 1M MnCl2 (0.02 μL), 25 μM GTP (0.4 μL), α-[^33P]-GTP (10 μCi/μL, 0.02 μL) and water (9.5 μL), Total 10 μL/well.
The assay was set up using compound (1 μL in 100% DMSO), first reagent (10 μL), and second reagent (10 μL), Total 21 μL.
The reaction was performed in a U-bottomed, white, 96-well plate. The reaction was mixed on a plate-shaker, after addition of the Enzyme, and incubated for 1 h at 22° C. After this time, the reaction was stopped by addition of 60 μL 1.5 mg/ml streptavidin SPA beads (Amersham) in 0.1 M EDTA in PBS. The beads were incubated with the reaction mixture for 1 h at 22° C. after which 100 μL 0.1 M EDTA in PBS was added. The plate was sealed, mixed centrifuged and incorporated radioactivity determined by counting in a Trilux (Wallac) or Topcount (Packard) Scintillation Counter.
After subtraction of background levels without enzyme, any reduction in the amount of radioactivity incorporated in the presence of a compound, compared to that in the absence, was taken as a measure of the level of inhibition. Ten concentrations of compounds were tested in three- or fivefold dilutions. From the counts per minute, percentage of inhibition at highest concentration tested or IC50s for the compounds were calculated using GraFit 3, GraFit 4 or GraFit 5 (Erithacus Software Ltd.) software packages or a data evaluation macro for Excel based on XLFit Software (IDBS).

T1 sequence (P27958 2421-3011 V2599I, form open): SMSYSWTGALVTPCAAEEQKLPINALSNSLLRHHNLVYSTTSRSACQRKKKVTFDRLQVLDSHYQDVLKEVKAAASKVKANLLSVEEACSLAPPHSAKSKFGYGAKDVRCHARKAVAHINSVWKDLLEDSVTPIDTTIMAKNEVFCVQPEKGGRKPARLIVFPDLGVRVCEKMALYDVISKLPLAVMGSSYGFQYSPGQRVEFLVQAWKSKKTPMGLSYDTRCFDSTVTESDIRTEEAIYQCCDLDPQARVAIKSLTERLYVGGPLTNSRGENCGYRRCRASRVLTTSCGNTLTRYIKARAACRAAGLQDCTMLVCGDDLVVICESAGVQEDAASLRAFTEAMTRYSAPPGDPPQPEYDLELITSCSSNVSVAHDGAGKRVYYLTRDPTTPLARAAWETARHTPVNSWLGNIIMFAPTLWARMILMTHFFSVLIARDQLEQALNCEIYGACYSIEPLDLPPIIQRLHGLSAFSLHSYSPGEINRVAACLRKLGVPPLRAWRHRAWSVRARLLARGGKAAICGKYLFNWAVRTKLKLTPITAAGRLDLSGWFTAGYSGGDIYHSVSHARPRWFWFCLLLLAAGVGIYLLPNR

| Structure (SMILES) | IC50 |
| --- | --- |
| COc1cc(C(=O)N2[C@@H](c3ncc(C)s3)[C@@H](c3cnccn3)C[C@@]2(Cc2nccs2)C(=O)O)ccc1C(C)(C)C (single isomer, unassigned; enantiomer a) [Example 14] | < 150 nM |
| COc1cc(C(=O)N2[C@@H](c3ncc(C)s3)[C@@H](c3cnccn3)C[C@@]2(Cc2cscn2)C(=O)O)ccc1C(C)(C)C (single isomer, unassigned; enantiomer a) [Example 16] | < 150 nM |
